# Measurements reported in ChEMBL document CHEMBL1143853, “Daptomycin nonsusceptibility in Staphylococcus aureus with reduced vancomycin susceptibility is independent of alterations in MprF” (2007).
# Key:
# Staphylococcus aureus [1] = assay: Antimicrobial activity against methicillin-resistant Staphylococcus aureus A8799 with mprF S337L mutation by agar dilution method; format: functional
# Staphylococcus aureus [2] = assay: Antimicrobial activity against methicillin-resistant Staphylococcus aureus A8796 by agar dilution method
# Staphylococcus aureus [3] = assay: Antimicrobial activity against methicillin-resistant Staphylococcus aureus A6224 by agar dilution method
# Staphylococcus aureus [4] = assay: Antimicrobial activity against methicillin-resistant Staphylococcus aureus A6300 by agar dilution method; format: functional
# Staphylococcus aureus [5] = assay: Antimicrobial activity against methicillin-resistant Staphylococcus aureus A6298 by agar dilution method; format: functional
# Staphylococcus aureus [6] = assay: Antimicrobial activity against methicillin-resistant Staphylococcus aureus A8090 by agar dilution method
# Staphylococcus aureus [7] = assay: Antimicrobial activity against methicillin-resistant Staphylococcus aureus A6226 by agar dilution method; format: functional
# Staphylococcus aureus [8] = assay: Antimicrobial activity against methicillin-resistant Staphylococcus aureus A8094 by agar dilution method; format: functional
smiles,measurement,setting,value
CCCCCCCCCC(=O)N[C@@H](Cc1c[nH]c2ccccc12)C(=O)N[C@H](CC(N)=O)C(=O)N[C@@H](CC(=O)O)C(=O)N[C@@H]1C(=O)NCC(=O)N[C@@H](CCCN)C(=O)N[C@@H](CC(=O)O)C(=O)N[C@H](C)C(=O)N[C@@H](CC(=O)O)C(=O)NCC(=O)N[C@H](CO)C(=O)N[C@@H]([C@H](C)CC(=O)O)C(=O)N[C@@H](CC(=O)c2ccccc2N)C(=O)O[C@@H]1C,MIC,Staphylococcus aureus [1],2 µg/mL
same,MIC,Staphylococcus aureus [2],0.5 µg/mL
same,MIC,Staphylococcus aureus [3],0.5 µg/mL
same,MIC,Staphylococcus aureus [4],1 µg/mL
same,MIC,Staphylococcus aureus [5],2 µg/mL
same,MIC,Staphylococcus aureus [6],0.5 µg/mL
same,MIC,Staphylococcus aureus [7],2 µg/mL
same,MIC,Staphylococcus aureus [8],2 µg/mL
